Measured values reported in patent EP0747355A1, “NOVEL CARBAMATE DERIVATIVE AND MEDICINAL COMPOSITION CONTAINING THE SAME” (priority 1994, dated 1995).
Read-outs that look alike come from different tables or passages of the source.

Tests used:
[1] = tested on: salivary secretion in rat; assay: Test on salivary secretion in rat (oxotremorine-induced); assay type: in vivo, Male Wistar rats
[2] = tested on: rhythmic bladder contraction in rat; assay: Test on rhythmic bladder contraction in rat (in vivo muscarinic antagonism); design: species or system Wistar female rats
muscarinic M2 receptors = target: T1, muscarinic M2 receptors (Rattus norvegicus, UniProt P10980); assay: biochemical; assay type: binding, Wistar male rats
T1 sequence (P10980 1-466): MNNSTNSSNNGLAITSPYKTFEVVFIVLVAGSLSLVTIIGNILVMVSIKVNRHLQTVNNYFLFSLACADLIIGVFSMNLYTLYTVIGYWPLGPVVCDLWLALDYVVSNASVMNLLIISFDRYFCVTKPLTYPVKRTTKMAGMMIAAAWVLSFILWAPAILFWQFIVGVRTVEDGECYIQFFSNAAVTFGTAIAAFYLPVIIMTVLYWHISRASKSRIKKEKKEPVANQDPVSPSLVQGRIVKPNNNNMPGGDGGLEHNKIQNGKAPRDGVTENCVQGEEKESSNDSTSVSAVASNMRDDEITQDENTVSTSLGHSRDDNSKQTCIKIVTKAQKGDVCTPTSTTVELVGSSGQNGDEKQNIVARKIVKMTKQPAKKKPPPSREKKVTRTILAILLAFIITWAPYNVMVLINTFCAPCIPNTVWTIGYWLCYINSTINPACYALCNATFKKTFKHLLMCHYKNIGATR

Muscarinic M3 receptor = target: T2, Muscarinic M3 receptor (Rattus norvegicus, UniProt P08483); assay: Muscarinic M3 receptor binding test (submandibular gland membranes, [3H]-N-methylscopolamine); design: species or system Wistar male rats
T2 construct: except that submandibular gland membranes were used and [^3H]-N-methylscopolamine was used as the labeled ligand; from tissue; host or cells: rat submandibular gland membranes (Wistar male rats, Nippon SLC)

[3] = tested on: bronchospasm in guinea pig; assay type: in vivo, Hartley male guinea pig
[4] = oxotremorine 0.8 µmol/kg 15 minutes after compound, saliva of 5 minutes
[5] = urethane anesthesia, cumulative i.v. administration, 30% inhibition of peak bladder contractions
[6] = read-out: Ki (nM) M2 binding Test
[7] = rat submandibular gland membranes, [3H]-N-methylscopolamine, read-out: Ki (nM) M3 binding Test
[8] = methacholine 5 µg/kg i.v., 3 minutes after compound i.v.

T2 sequence (P08483 whole entry): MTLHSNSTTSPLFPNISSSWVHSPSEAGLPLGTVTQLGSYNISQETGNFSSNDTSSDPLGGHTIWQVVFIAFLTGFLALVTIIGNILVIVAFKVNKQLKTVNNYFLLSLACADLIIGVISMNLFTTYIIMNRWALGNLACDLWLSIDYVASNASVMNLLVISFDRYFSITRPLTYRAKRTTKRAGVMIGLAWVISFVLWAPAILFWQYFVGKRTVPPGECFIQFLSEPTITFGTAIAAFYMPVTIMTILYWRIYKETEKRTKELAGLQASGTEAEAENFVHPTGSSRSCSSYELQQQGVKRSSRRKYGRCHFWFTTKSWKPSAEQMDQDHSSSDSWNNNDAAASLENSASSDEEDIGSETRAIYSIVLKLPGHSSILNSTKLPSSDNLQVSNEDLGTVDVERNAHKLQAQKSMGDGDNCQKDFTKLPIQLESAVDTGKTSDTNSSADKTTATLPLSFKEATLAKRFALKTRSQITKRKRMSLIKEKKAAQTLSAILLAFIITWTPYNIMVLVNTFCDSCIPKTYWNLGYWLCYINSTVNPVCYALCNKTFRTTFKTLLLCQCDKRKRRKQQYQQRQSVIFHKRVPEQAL

| Molecule | Salivary Secretion Test ED50 (mg/kg i.v.) [1, 4] | Rhythmic Bladder Contraction Test ED30 (mg/kg i.v.) [2, 5] | M2/M3 (Muscarinic M3 receptor; ratio of Ki M2 to Ki M3) | Bronchospasm Test ID50 (mg/kg i.v.) ([3]; in vivo, iv) | Ki (muscarinic M2 receptors) | Ki (Muscarinic M3 receptor) | further results |
| --- | --- | --- | --- | --- | --- | --- | --- |
| 3-Quinuclidinyl N-[2-(2-cyclohexen-1-yl)phenyl]carbamate hemioxalate [Example 61] | 0.14 mg/kg i.v. | 0.029 mg/kg i.v. |  |  |  |  |  |
| 3-quinuclidinyl N-[2-(1H-pyrrol-1-yl)phenyl]carbamate monohydrochloride [Example 2] | 0.11 mg/kg i.v. | 0.018 mg/kg i.v. | 20.4 |  |  |  | Ki (muscarinic M2 receptors; [6]): 100 nM; Ki (Muscarinic M3 receptor; [7]): 4.89 nM |
| CN1[C@@H]2CC[C@H]1C[C@@H](OC(=O)C(CO)c1ccccc1)C2 (some centres unmarked) [Atropine, reference compound] |  |  |  | 0.0008 mg/kg i.v. |  |  | Salivary Secretion Test ED50 (mg/kg i.v.) ([1]; in vivo, iv): 0.0084 mg/kg i.v.; Rhythmic Bladder Contraction Test ED30 (mg/kg i.v.) ([2]; in vivo, iv): 0.009 mg/kg i.v. |
| Cl.O=C(Nc1ccccc1-c1ccccc1)OC1CN2CCC1CC2 (centres unmarked) [Example 1, 3-quinuclidinyl N-(2-biphenylyl)carbamate monohydrochloride] |  |  | 27.6 |  | 25.9 nM | 0.94 nM | Bronchospasm Test ID50 (mg/kg i.v.) [3, 8]: 0.0045 mg/kg i.v. |
| C[N+]12CCC(CC1)C(OC(=O)Nc1ccccc1-c1ccccc1)C2.[I-] (centres unmarked) [Example 3, 3-[[N-(2-biphenylyl)carbamoyl]oxy]-1-methylquinuclidinium iodide] |  |  | 25.7 |  | 14.4 nM | 0.56 nM | Bronchospasm Test ID50 (mg/kg i.v.) [3, 8]: 0.0038 mg/kg i.v. |
| Cl.O=C(Nc1ccccc1-c1ccccc1)OC12CCN(CC1)CC2 [Example 4, 4-quinuclidinyl N-(2-biphenylyl)carbamate monohydrochloride] |  |  |  | 0.0082 mg/kg i.v. | 5.89 nM | 0.39 nM | Salivary Secretion Test ED50 (mg/kg i.v.) ([1]; in vivo, iv): 0.10 mg/kg i.v.; Rhythmic Bladder Contraction Test ED30 (mg/kg i.v.) ([2]; in vivo, iv): 0.014 mg/kg i.v.; M2/M3 (Muscarinic M3 receptor): 15.2 |
| C[N+]1(C)CCC(OC(=O)Nc2ccccc2-c2ccccc2)CC1.[I-] [Example 7, 4-[[N-(2-biphenylyl)carbamoyl]oxy]-1,1-dimethylpiperidinium iodide] |  |  | 25.8 | 0.0054 mg/kg i.v. |  |  | Ki (muscarinic M2 receptors; [6]): 14.7 nM; Ki (Muscarinic M3 receptor; [7]): 0.57 nM |
| O=C(Nc1ccccc1-c1ccccc1)OC1CCN(Cc2cccc(O)c2)CC1.O=C(O)C(=O)O [Example 15, 1-(3-Hydroxybenzyl)-4-piperidyl N-(2-biphenylyl)carbamate monooxalate] | 0.36 mg/kg i.v. | 0.058 mg/kg i.v. |  |  |  |  |  |
| CCN(CC)CC#CCOC(=O)C(O)(c1ccccc1)C1CCCCC1 (centres unmarked) [Oxybutynin, reference compound] | 0.18 mg/kg i.v. | 0.24 mg/kg i.v. |  |  |  |  |  |
